According to US20020120098A1, “Enhanced stimulation of erythropoiesis” (priority 1996, published 2002):

Columns and labels:
Format in all cases: cell-based, human
CFU-E [1] = test: Colony formation assay (CFA), cord blood LDMNC: CFU-E colonies; settings: 5% O2, 0.2 U/ml Epo; 100 μM hemin, 1.0 mg/ml HAo or HEMOLINK; relative to controls at 2 U/ml Epo, ambient O2
BFU-E = test: Colony formation assay, CD34+/CD38- and CD34+/CD33- enriched cord blood cells: BFU-E; settings: 2 U/ml Epo, 5% O2, 14 days; vs untreated controls under same conditions
Description: CD34^+/CD38^− cells were isolated from cord blood LDMNC using the STEMSEP™ system (StemCell Technologies Inc., Vancouver, Canada). The CD34^+/CD38^− cell purity was increased from <0.1% in unfractionated LDMNC to ˜81% CD34^+/CD38^− cells post fractionation as determined by flow cytometry. To obtain the CD34^+/CD33^− cells CD34^+ cells were first isolated from cord blood LDMNC using the CEPRATE™ LC system (CellPro Inc., Bothell, Wash.). The CD34^+/CD33^− fraction was then enriched to ˜94% purity by flow fluorescence activated cell sorting (FACS; Epics Elite, Coulter Electronics, Hialeah, Fla.). The colony formation assay was conducted as described in Examples 1-4, except that 1×10^3 CD34^+ cells/ml were plated versus 1×10^3 unfractionated cord blood LDMNC/ml normally plated. Mean fold increase in BFU-E and CFU-E progenitor number produced from CD34^+ CD38^− enriched (a; n=2) and CD34^+ CD33^− enriched (b; n=1) cord blood LDMNC stimulated by 1.0 mg/ml HAo (15.6 μM) or HEMOLINK™ (15.6 μM), 100 μM hemin 250 μM FeCl3 in the presence of 2 U/ml Epo is shown in FIG. 13. Cultures were maintained at 5% O2 for 14 days. The results are expressed relative cells treated only with the respective vehicles and cultured under the same conditions.

CFU-E [2] = test: Colony formation assay (CFA), cord blood LDMNC: CFU-E colonies; settings: for fold increase in CFU-E at 5% O2: 5% O2, 2 U/ml Epo, 1.0 mg/ml HAo or HEMOLINK, 100 μM hemin, relative to untreated controls at ambient O2; for CFU-E progenitor number, fold increase: 2 U/ml Epo, ambient O2, vs vehicle control
Procedure: This technique, referred to as the colony formation assay (CFA), is the most widely used biological assay to identify and enumerate erythroid progenitors present in hematopoietic tissue such as blood and bone marrow. Cell populations containing erythroid progenitors are plated in semi-solid suspensions of methyl cellulose, agar, low melting agarose or related substances in nutrient culture medium containing 1-3 U/ml Epo and 10 ng/ml IL-3 to specifically stimulate erythroid progenitors. Plates are incubated at 37° C. for 14 days during which time the erythroid progenitors form characteristic hemoglobinized (red) colonies. Two distinct but related erythroid progenitors can be distinguished based on colony size and morphology: BFU-E, the most primitive recognizable erythroid progenitor forms large multilobular colonies whereas the more mature CFU-E forms smaller spherical colonies.
Adult hemoglobin was purified according to U.S Pat. Nos. 5,439,591 and 5,545,328 to obtain HAo and HEMOLINK™ was prepared from HAo according to U.S. Pat. No. 5,532,352. Human umbilical cord blood intended for discard was collected from the umbilical vein of placentas immediately postpartum into 10 ml vacutainer tubes containing 143 USP units/ml sodium heparin. Low density mononuclear cells were separated from red blood cells by centrifugation over a 1.077 g/ml density gradient Cells removed from the plasma/density gradient interface were incubated overnight in a tissue culture flask with 10 ml cell culture medium containing 10% fetal bovine serum, and non-adherent LDMNC were further purified with an additional density gradient step. The LDMNC were then plated into colony formation assays (CFA) on the second day of isolation. In the CFA, LDMNC were plated at a density of 1×10^5 cells/ml in Iscoves modified Dulbeccos cell culture medium containing 0.8% methyl-cellulose, 30% fetal bovine serum, 1% bovine serum albumin, 0.1 mM 2-mercaptoethanol and 2 mM L-glutamine. Unless indicated otherwise, under standard CFA conditions 2 U/ml Epo and 10 ng/ml IL-3 are added to the formulation to stimulate hematopoietic progenitor growth, specifically BFU-E, CFU-E and CFU-GM.
Each condition was tested in duplicate in from 2-18 independent experiments. Cultures were maintained in a humidified incubator at 37° C., 5% CO2 and ambient oxygen tensions. The number of hematopoietic progenitors was scored between days 13-15 by counting the number and types of colonies present.
Erythroid progenitor colony formation assays were conducted as described in Example 1 except that cultures were incubated at either ambient oxygen tensions (˜20% O2) or 5% O2. The reduced oxygen tension of 5% O2 approximates the physiological intravascular oxygen tension in mammals. The mean fold increase in cord blood BFU-E, CFU-E and CFU-GM progenitor number at 5% O2 produced by 1.0 mg/ml HAo (15.6 μM; n=11) or HEMOLINK™ (15.6 μM; n=6), 100 μM hemin (n=10), 250 μM FeCl3 (n=6) or no addition (n=17-18), is shown FIG. 2. Results are expressed relative to control cells treated only with respective vehicles and cultured at ambient oxygen tensions (˜20% O2; fold expansion=1.0; *p<0.05, **p<0.01).
Erythroid progenitor colony formation assays were conducted as described in Example 1 except that cultures were initiated in the presence of Epo concentrations ranging from 0-2 U/ml. The mean fold increase in cord blood BFU-E, CFU-E and CFU-GM progenitor number produced by 1.0 mg/ml HAo (15.6 μM; n=9) or HEMOLINK™ (15.6 μM; n=6), 100 μM hemin (n=8), 250 μM FeCl3 (n=6), or no addition (n=9-10) in the presence of reduced Epo concentrations (0.2 U/ml) is shown in FIG. 3. Cultures were maintained at ambient oxygen tensions (˜20% O2) for 14 days. Results are expressed relative to control cells at 2 U/ml Epo treated only with the respective vehicles (solid line at fold expansion=1.0; *p<0.05, **p<0 01). Erythroid progenitor colonies were undetectable in the absence of Epo. […]

Molecule	fold increase in CFU-E at 0.2 U/ml Epo and 5% O2 (CFU-E [1])	increase in BFU-E from CD34+ enriched progenitor populations (in words) (BFU-E)	fold increase in CFU-E at 5% O2 (CFU-E [2])	CFU-E progenitor number, fold increase (CFU-E [2]; dose 1.0 μM)	CFU-E progenitor number, fold increase (CFU-E [2]; dose 10 μM)	CFU-E progenitor number, fold increase (CFU-E [2]; dose 64 μM)	CFU-E progenitor number, fold increase (CFU-E [2]; dose 250 μM)	protection of CFU-E from ganciclovir toxicity (CFU-E [2]; 1 mg/ml HEMOLINK plus 0-100 μM ganciclovir)	CFU-E progenitor number, fold increase (CFU-E [2]; dose 10 μg/ml)	CFU-E progenitor number, fold increase (CFU-E [2]; dose 100 μg/ml)	CFU-E progenitor number, fold increase (CFU-E [2]; dose 500 μg/ml)
C=CC1=C(C)C2=Cc3c(C=C)c(C)c4[n]3[Fe-2]35([Cl])[n]6c(c(C)c(CCC(=O)O)c6=CC6=[N+]3C(=C4)C(C)=C6CCC(=O)O)=CC1=[N+]25 [hemin]	3.2 fold	stimulated an increase in BFU-E	~3 fold	1.2 fold	*1.6 fold	1.8 fold	2.2 fold				
[Cl][Fe]([Cl])[Cl] [FeCl3]		to a lesser extent		1.0 fold	1.2 fold		1.1 fold				
HEMOLINK™: chemically crosslinked hemoglobin prepared by treating human hemoglobin with a polyaldehyde (O-raffinose)	1.7 fold	stimulated an increase in BFU-E	~3 fold					protects CFU-E			
HAo: adult human hemoglobin obtained from red blood cells and purified by displacement chromatography; uncross linked product	2.1 fold	stimulated an increase in BFU-E	~3 fold						1.2 fold	1.5 fold	*1.4 fold
